How the values were obtained:
[1] = molecular target: 3-oxo-5-alpha-steroid 4-dehydrogenase 2 (Rattus norvegicus, UniProt P31214); test: Inhibition of rat liver microsomal SRD5A2 incubated for 60 mins by thin layer chromatography; format: microsomes, Microsome
HepG2 [2] = test: Antiproliferative activity against human HepG2 cells assessed as cell growth inhibition measured after 24 hrs by MTT assay; format: functional, cell-based; settings: HepG2, 24 h
PC-3 = test: Antiproliferative activity against human PC-3 cells assessed as cell growth inhibition measured after 96 hrs by MTT assay; format: functional, cell-based; settings: PC-3, 96 h
LNCaP = test: Antiproliferative activity against human LNCaP cells assessed as cell growth inhibition measured after 96 hrs by MTT assay; format: functional, cell-based
[3] = molecular target: 3-oxo-5-alpha-steroid 4-dehydrogenase 2 (Homo sapiens, UniProt P31213); test: Inhibition of SRD5A2 in HEK293 incubated for 60 mins by thin layer chromatography; format: cell-based
3-oxo-5-alpha-steroid 4-dehydrogenase 2 (Homo sapiens, UniProt P31213), sequence (P31213 whole entry): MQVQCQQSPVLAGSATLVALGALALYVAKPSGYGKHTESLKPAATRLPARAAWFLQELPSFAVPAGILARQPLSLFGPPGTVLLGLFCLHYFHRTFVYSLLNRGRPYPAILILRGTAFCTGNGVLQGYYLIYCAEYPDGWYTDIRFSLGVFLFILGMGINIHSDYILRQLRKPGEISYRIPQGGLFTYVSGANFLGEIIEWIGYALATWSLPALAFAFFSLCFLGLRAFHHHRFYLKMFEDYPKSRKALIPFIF

[4] = molecular target: 3-oxo-5-alpha-steroid 4-dehydrogenase 1 (Homo sapiens, UniProt P18405); test: Inhibition of human prostate SRD5A1 incubated for 60 mins by scintillation counter; format: tissue-based, Prostate gland
3-oxo-5-alpha-steroid 4-dehydrogenase 1 (Homo sapiens, UniProt P18405), sequence (P18405 whole entry): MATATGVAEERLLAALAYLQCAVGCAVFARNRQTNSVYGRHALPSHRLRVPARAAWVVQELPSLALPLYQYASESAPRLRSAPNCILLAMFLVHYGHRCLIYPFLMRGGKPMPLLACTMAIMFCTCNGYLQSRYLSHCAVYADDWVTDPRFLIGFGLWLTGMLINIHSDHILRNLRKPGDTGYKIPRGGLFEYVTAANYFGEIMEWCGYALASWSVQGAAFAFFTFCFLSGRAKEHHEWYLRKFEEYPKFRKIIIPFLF

[5] = Inhibition of Wistar rat testicular 3beta-HSD incubated for 20 mins by liquid scintillation counting analysis; format: tissue-based, Testis
Bacillus cereus = test: Antibacterial activity against Bacillus cereus ATCC 11778 assessed as inhibition of bacterial growth measured after 24 hrs by CLSI protocol based microdilution assay; format: functional
Staphylococcus aureus [6] = test: Antibacterial activity against Staphylococcus aureus ATCC 25923 assessed as inhibition of bacterial growth measured after 24 hrs by CLSI protocol based microdilution assay; format: functional
Staphylococcus aureus [7] = test: Antibacterial activity against methicillin resistant Staphylococcus aureus ATCC 25923 assessed as inhibition of bacterial growth measured after 24 hrs by CLSI protocol based microdilution assay; format: functional
Corynebacterium sp. = test: Antibacterial activity against Corynebacterium assessed as inhibition of bacterial growth measured after 24 hrs by CLSI protocol based microdilution assay; format: functional
Staphylococcus aureus [8] = test: Antibacterial activity against methicillin resistant Staphylococcus aureus chicken isolate assessed as inhibition of bacterial growth measured after 24 hrs by CLSI protocol based microdilution assay; format: functional
Staphylococcus aureus [9] = test: Antibacterial activity against methicillin resistant Staphylococcus aureus human isolate assessed as inhibition of bacterial growth measured after 24 hrs by CLSI protocol based microdilution assay; format: functional
Enterococcus faecalis = test: Antibacterial activity against Enterococcus faecalis ATCC 19433 assessed as inhibition of bacterial growth measured after 24 hrs by CLSI protocol based microdilution assay; format: functional
Brevibacterium = test: Antibacterial activity against Brevibacterium assessed as inhibition of bacterial growth measured after 24 hrs by CLSI protocol based microdilution assay; format: functional
Candida albicans = test: Antifungal activity against Candida albicans ATCC 10231 assessed as fungal growth inhibition measured after 24 hrs by CLSI protocol based microdilution assay; format: functional
Escherichia coli = test: Antibacterial activity against Escherichia coli DSM 10233 assessed as inhibition of bacterial growth measured after 24 hrs by CLSI protocol based microdilution assay; format: functional
Staphylococcus aureus [10] = test: Antibacterial activity against methicillin resistant Staphylococcus aureus ATCC 43300 assessed as inhibition of bacterial growth measured after 24 hrs by CLSI protocol based microdilution assay; format: functional
T47D = test: Antiproliferative activity against human T47D cells assessed as cell growth inhibition measured after 72 hrs by MTT assay; format: functional, cell-based
MCF7 [11] = test: Antiproliferative activity against human MCF7 cells assessed as cell growth inhibition measured after 72 hrs by MTT assay; format: functional, cell-based; settings: MCF7, 72 h
MDA-MB-361 = test: Antiproliferative activity against human MDA-MB-361 cells assessed as cell growth inhibition measured after 72 hrs by MTT assay; format: functional, cell-based; settings: MDA-MB-361, 72 h
K562 = test: Antiproliferative activity against human K562 cells assessed as cell growth inhibition measured after 5 days by MTT assay; format: functional, cell-based; settings: K562, 120 h
OVCAR-3 = test: Antiproliferative activity against human OVCAR-3 cells assessed as cell growth inhibition measured after 5 days by MTT assay; format: functional, cell-based; settings: OVCAR-3, 120 h
Tubulin = Tubulin (Sus scrofa, UniProt P02554+P02550); test: Inhibition of porcine brain tubulin polymerization preincubated for 30 mins followed by GTP addition by absorbance based analysis; format: tissue-based
[12] = Antiproliferative activity against human WM35 cells assessed as cell growth inhibition measured after 5 days by MTT assay; format: functional, cell-based; settings: WM35, 120 h
[13] = molecular target: 3-oxo-5-alpha-steroid 4-dehydrogenase 1 (Rattus norvegicus, UniProt P24008); test: Inhibition of rat liver microsomal SRD5A1 incubated for 60 mins by thin layer chromatography; format: microsomes, Microsome
3-oxo-5-alpha-steroid 4-dehydrogenase 1 (Rattus norvegicus, UniProt P24008), sequence (P24008 whole entry): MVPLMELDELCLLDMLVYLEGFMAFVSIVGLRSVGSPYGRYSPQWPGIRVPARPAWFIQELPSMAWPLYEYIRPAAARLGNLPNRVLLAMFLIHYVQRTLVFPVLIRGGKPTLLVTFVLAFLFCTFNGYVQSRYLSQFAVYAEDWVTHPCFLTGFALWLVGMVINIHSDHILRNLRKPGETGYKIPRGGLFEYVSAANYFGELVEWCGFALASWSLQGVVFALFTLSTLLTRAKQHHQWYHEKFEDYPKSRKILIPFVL

HepG2 [14] = test: Antiproliferative activity against human HepG2 cells assessed as cell growth inhibition by MTT assay; format: functional, cell-based
SGC-7901 = test: Antiproliferative activity against human SGC-7901 cells assessed as cell growth inhibition by MTT assay; format: functional, cell-based
Huh-7 = test: Antiproliferative activity against human Huh-7 cells assessed as cell growth inhibition by MTT assay; format: functional, cell-based
MGC-803 = test: Antiproliferative activity against human MGC-803 cells assessed as cell growth inhibition measured after 72 hrs by MTT assay; format: functional, cell-based; settings: MGC-803, 72 h
ECa-109 cell line = test: Antiproliferative activity against human EC109 cells assessed as cell growth inhibition measured after 72 hrs by MTT assay; format: functional, cell-based; settings: ECa-109, 72 h
EC9706 = test: Antiproliferative activity against human EC9706 cells assessed as cell growth inhibition measured after 72 hrs by MTT assay; format: functional, cell-based; settings: EC9706, 72 h
HeLa [15] = test: Antiproliferative activity against human HeLa cells assessed as cell growth inhibition; format: functional, cell-based
[16] = Antiproliferative activity against African green monkey Vero cells assessed as cell growth inhibition; format: toxicity, cell-based; settings: African green monkey (Chlorocebus sabaeus)
CCRF-CEM [17] = test: Antiproliferative activity against human CEM cells assessed as cell growth inhibition; format: functional, cell-based
[18] = Antiangiogenesis activity in Bovine BAEC cells assessed as increase in tube formation incubated for 18 hrs by microscopic analysis; format: functional, cell-based; settings: Bos taurus
HT-29 = test: Antiproliferative activity against human HT-29 cells assessed as cell growth inhibition; format: functional, cell-based
[19] = Antiproliferative activity against human HMEC-1 cells assessed as cell growth inhibition; format: toxicity, cell-based
MDA-MB-231 = test: Antiproliferative activity against human MDA-MB-231 cells assessed as cell growth inhibition; format: functional, cell-based
HepG2 [20] = test: Antiproliferative activity against human HepG2 cells assessed as cell growth inhibition; format: functional, cell-based
SK-OV-3 = test: Antiproliferative activity against human SK-OV-3 cells assessed as cell growth inhibition; format: functional, cell-based
MCF7 [21] = test: Antiproliferative activity against human MCF7 cells assessed as cell growth inhibition; format: functional, cell-based
HeLa [22] = test: Antiproliferative activity against human HeLa cells assessed as cell growth inhibition measured after 4 days by coulter counter assay; format: functional, cell-based; settings: 96 h
CCRF-CEM [23] = test: Antiproliferative activity against human CEM cells assessed as cell growth inhibition measured after 4 days by coulter counter assay; format: functional, cell-based; settings: 96 h
[24] = Antiproliferative activity against human HMEC-1 cells assessed as cell growth inhibition measured after 4 days by coulter counter assay; format: toxicity, cell-based

3-oxo-5-alpha-steroid 4-dehydrogenase 2 (Rattus norvegicus, UniProt P31214), sequence (P31214 whole entry): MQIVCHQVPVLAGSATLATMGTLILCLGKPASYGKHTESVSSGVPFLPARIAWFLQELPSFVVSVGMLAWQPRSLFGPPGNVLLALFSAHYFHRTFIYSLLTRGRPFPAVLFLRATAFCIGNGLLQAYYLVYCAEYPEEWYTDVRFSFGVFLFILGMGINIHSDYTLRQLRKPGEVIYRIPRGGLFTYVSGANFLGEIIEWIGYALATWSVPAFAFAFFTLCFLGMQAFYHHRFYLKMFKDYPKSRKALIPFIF

C[C@]12CC[C@H](O)CC1=CC[C@@H]1[C@@H]2CC[C@]2(C)C(n3cnc4ccccc43)=C(C=O)C[C@@H]12
IC50 [1]: 127 nM

COc1ccncc1C1=CC[C@H]2[C@@H]3CC=C4C[C@@H](OC(=O)[C@H](O)[C@@H](NC(=O)c5ccccc5)c5ccccc5)CC[C@]4(C)[C@H]3CC[C@]12C
IC50 (HepG2 [2]): 67.7 µM

C[C@]12CC[C@H](O)CC1=CC[C@@H]1[C@@H]2CC[C@]2(C)C(c3nc4ccccc4[nH]3)=CC[C@@H]12
IC50 (PC-3): 6.9 µM | IC50 (LNCaP): 3.8 µM

CC(=O)N1N=C(C2=CC[C@H]3[C@@H]4CC=C5C[C@@H](O)CC[C@]5(C)[C@H]4CC[C@]23C)C[C@H]1c1ccc(F)cc1
IC50 [3]: 27.3 nM | IC50 [4]: 13.9 nM

COC(=O)c1cc([C@H]2CC[C@H]3[C@@H]4CCC5=CC(=O)CC[C@]5(C)[C@H]4CC[C@]23C)n(-c2ccc(OC)cc2)n1
IC50 [5]: 420 nM

CCCCCCn1c[n+](CCCCCC)c2c1[C@@]1(C)CC[C@H]3[C@@H](CC=C4C[C@@H](O)CC[C@@]43C)[C@@H]1C2.[I-]
MIC (Bacillus cereus): 1 µg/mL | MIC (Staphylococcus aureus [6]): 0.5 µg/mL | MIC (Staphylococcus aureus [7]): 0.5 µg/mL | MIC (Corynebacterium sp.): 8 µg/mL | MIC (Staphylococcus aureus [8]): 1 µg/mL | MIC (Staphylococcus aureus [9]): 1 µg/mL | MIC (Enterococcus faecalis): 4 µg/mL | MIC (Brevibacterium): 0.5 µg/mL | MIC (Candida albicans): 1 µg/mL | MIC (Escherichia coli): 4 µg/mL | MIC (Staphylococcus aureus [10]): 1 µg/mL

C[C@]12CC[C@H](O)CC1=CC[C@@H]1[C@@H]2CC[C@]2(C)C3=NN(c4ccc(C#N)cc4)C[C@@H]3C[C@@H]12
IC50 (T47D): 1450 nM | IC50 (MCF7 [11]): 1100 nM | IC50 (MDA-MB-361): 940 nM

CCCCCCCn1c[n+](CCCCCCC)c2c1[C@@]1(C)CC[C@H]3[C@@H](CC=C4C[C@@H](O)CC[C@@]43C)[C@@H]1C2.[I-]
MIC (Bacillus cereus): 0.5 µg/mL | MIC (Staphylococcus aureus [6]): 0.25 µg/mL | MIC (Staphylococcus aureus [7]): 1 µg/mL | MIC (Corynebacterium sp.): 1 µg/mL | MIC (Staphylococcus aureus [8]): 0.5 µg/mL | MIC (Staphylococcus aureus [9]): 1 µg/mL | MIC (Enterococcus faecalis): 1 µg/mL | MIC (Brevibacterium): 0.25 µg/mL | MIC (Candida albicans): 1 µg/mL | MIC (Escherichia coli): 4 µg/mL | MIC (Staphylococcus aureus [10]): 1 µg/mL

C[C@]12CC[C@H](O)CC1=CC[C@@H]1[C@@H]2CC[C@]2(C)C(c3ccn(-c4ccc(Cl)cc4)n3)=CC[C@@H]12
IC50 [3]: 35.3 nM | IC50 [4]: 14.2 nM

COc1cc2c(cc1O)CC[C@@H]1[C@@H]2CC[C@]2(C)[C@@H](c3cn(-c4ccc(C(F)(F)F)cc4)nn3)CC[C@@H]12
IC50 (K562): 1000 nM | IC50 (OVCAR-3): 1400 nM | IC50 (Tubulin): 8.1 µM | IC50 [12]: 1900 nM

C[C@]12CC[C@H](OC(=O)C3CC3)CC1=CC[C@@H]1[C@@H]2CC[C@]2(C)C(n3cnc4ccccc43)=C(C=O)C[C@@H]12
IC50 [13]: 320 nM | IC50 [1]: 4 nM

C[C@]12CC[C@H](O)CC1=CC[C@@H]1[C@@H]2CC[C@]2(C)c3nc(N)nc(-c4ccccc4Cl)c3C[C@@H]12
IC50 (HepG2 [14]): 5.41 µM | IC50 (SGC-7901): 10.6 µM | IC50 (Huh-7): 5.65 µM

C[C@]12CC[C@H](O)CC1=CC[C@@H]1[C@@H]2CC[C@]2(C)c3nc(NCc4ccc(Cl)cc4)sc3C[C@@H]12
IC50 (MGC-803): 10.3 µM | IC50 (ECa-109 cell line): 196 nM | IC50 (EC9706): 39.3 µM

COc1cc2c(cc1OS(N)(=O)=O)CC[C@@H]1[C@@H]2CC[C@]2(C)C(c3ccnc(Cl)c3)=CC[C@@H]12
IC50 (Tubulin): 2.3 µM | IC50 (HeLa [15]): 1600 nM | IC50 [16]: 1300 nM | IC50 (CCRF-CEM [17]): 260 nM | IC50 [18]: 100 nM | IC50 (HT-29): 430 nM | IC50 [19]: 2300 nM

COc1cc2c(cc1O)CC[C@@H]1[C@@H]2CC[C@]2(C)[C@@H](c3cn(-c4ccc(OC(F)(F)F)cc4)nn3)CC[C@@H]12
IC50 (K562): 700 nM | IC50 (OVCAR-3): 900 nM | IC50 (Tubulin): 5.9 µM | IC50 [12]: 2900 nM

COc1cc2c(cc1OS(N)(=O)=O)CC[C@@H]1[C@@H]2CC[C@]2(C)C(c3cncc(Cl)c3)=CC[C@@H]12
IC50 (Tubulin): 2.1 µM | IC50 (HeLa [15]): 370 nM | IC50 [16]: 30 nM | IC50 (CCRF-CEM [17]): 39 nM | IC50 (MDA-MB-231): 110 nM | IC50 [18]: 200 nM | IC50 (HT-29): 110 nM | IC50 [19]: 400 nM

C[C@]12CC[C@H]3[C@@H](CC=C4C[C@@H](O)CC[C@@]43C)[C@@H]1CC[C@@H]2c1cc(-c2ccc(O)cc2)c(C#N)c(N)n1
IC50 (HepG2 [20]): 12.4 µM | IC50 (SK-OV-3): 5.08 µM | IC50 (MCF7 [21]): 8.81 µM | IC50 (HeLa [15]): 8140 nM

C[C@]12CC[C@H](O)CC1=CC[C@@H]1[C@@H]2CC[C@]2(C)C(c3ccc4[nH]ccc4c3)=CC[C@@H]12
IC50 (HeLa [22]): 2900 nM | IC50 (CCRF-CEM [23]): 1500 nM | IC50 at 4 days [24]: 590 nM

Source: ChEMBL document CHEMBL5104124, “Recent advances on synthesis and biological activities of C-17 aza-heterocycle derived steroids” (Bioorg Med Chem, 2022)
